{
  "source": "patent US20090197955A1",
  "about": "“METHODS OF IMPROVING DHA DEPOSITION AND RELATED FUNCTION AND/OR DEVELOPMENT” (Monsanto Company, priority 2008, published 2009)",
  "key": {"[1]": {"test": "Brain outer cortex lipid fatty acid analysis, control vs 0.8% SDA", "format": "in vivo, pigs", "procedure": "About 1 g of frozen heart or brain tissue was pulverized in a stainless steel mortar and pestle maintained at −70° C. It was then suspended in 2 mL of ice-cold saline and sonicated on ice to thoroughly disperse the tissue. The lipids were extracted with methylene chloride:methanol. […] After extraction of the fatty acid methyl esters (FAME) with hexane:water, their composition was analyzed in a GC2010 (Shimadzu Scientific Instruments, Columbia, Md.) using a fused silica capillary columns (SP-2560, 100 m length, 0.25 mm internal diameter, 0.25 um film thickness, Supelco, Bellefonte, Pa.). A weighed external standard fatty acid (FA) mixture (GLC727, NuCheck Prep, Elysian, Minn.) was included to correct for potential differences in FA response factors. The response factor for palmitic acid of is assumed to be 1.0. Results were expressed as a percent of total identified FA (for composition endpoints) and as mg FA/g tissue. To further explore the effect of SDA on brain tissue composition, samples from the four control and four high dose (Treatment 5) animals were shaved to isolate the outer cortex. This was done to test the hypothesis that white, myelinated tissue found in the mid brain may not accumulate DHA as readily as gray matter in the cerebral cortex."}, "[2]": {"conditions": "cited from earlier work"}, "[3]": {"test": "Brain phospholipid fatty acid composition of pigs fed SDA", "format": "in vivo", "conditions": "for Brain phospholipid DHA, percent of total fatty acids / Brain phospholipid EPA, percent of total fatty acids / Brain phospholipid SDA, percent of total fatty acids: 35 days", "procedure": "In addition to measuring long-chain fatty acid incorporation into tissues, additional research was undertaken to understand the alterations in fatty acid concentration in the brain and heart tissues. In particular, DHA is known to be a significant fraction of brain composition. As such, the following experiments were conducted with brain matter extracted from the pigs used in the study above. After completion of the feeding phase, animals were slaughtered and tissues were collected for evaluation. A sample of brain was obtained by making a cup from the occipital condyle at the base of the skull to the back of the eye. A portion of the brain from the cerebral cortex, and some of the mid brain was collected. About 1 g of frozen heart or brain tissue was pulverized in a stainless steel mortar and pestle maintained at −70° C. It was then suspended in 2 mL of ice-cold saline and sonicated on ice to thoroughly disperse the tissue. The lipids were extracted with methylene chloride:methanol. The PL fractions were isolated by thin layer chromatography and methylated for 10 minutes in BF3-methanol at 100° C. After extraction of the fatty acid methyl esters (FAME) with hexane:water, their composition was analyzed in a GC2010 (Shimadzu Scientific Instruments, Columbia, Md.) using a fused silica capillary columns (SP-2560, 100 m length, 0.25 mm internal diameter, 0.25 um film thickness, Supelco, Bellefonte, Pa.). A weighed external standard fatty acid (FA) mixture (GLC727, NuCheck Prep, Elysian, Minn.) was included to correct for potential differences in FA response factors. The response factor for palmitic acid of is assumed to be 1.0. Results were expressed as a percent of total identified FA (for composition endpoints) and as mg FA/g tissue."}, "[4]": {"conditions": "0.8% SDA (Treatment 5), average"}},
  "data": [
    {"molecule": "CC/C=C\\C/C=C\\C/C=C\\C/C=C\\CCCCC(=O)O", "note": "[SDA, stearidonic acid]", "values": [
      {"measurement": "C14:0, brain outer cortex", "setting": "[1]; [4]", "value": 0.50, "unit": "%"},
      {"measurement": "C16:0, brain outer cortex", "setting": "[1]; [4]", "value": 24.20, "unit": "%"},
      {"measurement": "C16:1n7, brain outer cortex", "setting": "[1]; [4]", "value": 1.05, "unit": "%"},
      {"measurement": "C16:1n7t, brain outer cortex", "setting": "[1]; [4]", "value": 0.28, "unit": "%"},
      {"measurement": "C18:0, brain outer cortex", "setting": "[1]; [4]", "value": 16.53, "unit": "%"},
      {"measurement": "C18:1n9, brain outer cortex", "setting": "[1]; [4]", "value": 19.14, "unit": "%"},
      {"measurement": "C18:1t, brain outer cortex", "setting": "[1]; [4]", "value": 0.08, "unit": "%"},
      {"measurement": "C18:2n6, brain outer cortex", "setting": "[1]; [4]", "value": 0.63, "unit": "%"},
      {"measurement": "C18:2n6t, brain outer cortex", "setting": "[1]; [4]", "value": 0.23, "unit": "%"},
      {"measurement": "C18:3n3, brain outer cortex", "setting": "[1]; [4]", "value": 0.15, "unit": "%"},
      {"measurement": "C18:3n6, brain outer cortex", "setting": "[1]; [4]", "value": 0.02, "unit": "%"},
      {"measurement": "C18:4n3, brain outer cortex", "setting": "[1]; [4]", "value": 0.02, "unit": "%"},
      {"measurement": "C20:1n9, brain outer cortex", "setting": "[1]; [4]", "value": 0.23, "unit": "%"},
      {"measurement": "C20:2n6, brain outer cortex", "setting": "[1]; [4]", "value": 0.06, "unit": "%"},
      {"measurement": "C20:3n6, brain outer cortex", "setting": "[1]; [4]", "value": 0.35, "unit": "%"},
      {"measurement": "C20:4n6, brain outer cortex", "setting": "[1]; [4]", "value": 11.48, "unit": "%"},
      {"measurement": "C20:5n3, brain outer cortex", "setting": "[1]; [4]", "value": 0.15, "unit": "%"},
      {"measurement": "C22:4, brain outer cortex", "setting": "[1]; [4]", "value": 2.90, "unit": "%"},
      {"measurement": "C22:5n3, brain outer cortex", "setting": "[1]; [4]", "value": 0.98, "unit": "%"},
      {"measurement": "C22:5n6, brain outer cortex", "setting": "[1]; [4]", "value": 3.58, "unit": "%"},
      {"measurement": "C22:6n3, brain outer cortex", "setting": "[1]; [4]", "value": 17.38, "unit": "%"},
      {"measurement": "C24:0, brain outer cortex", "setting": "[1]; [4]", "value": 0.02, "unit": "%"},
      {"measurement": "C24:1n9, brain outer cortex", "setting": "[1]; [4]", "value": 0.05, "unit": "%"},
      {"measurement": "OMX-3 (Omega 3 Index, sum of EPA and DHA), brain outer cortex", "setting": "[1]; [4]", "value": 17.53, "unit": "%"},
      {"measurement": "DHA and EPA in total lipid extract of the outer cortex region", "setting": "[1]; Treatment 5 vs control", "value": "increase in DHA and EPA"},
      {"measurement": "Amount of SDA relative to EPA needed to enrich blood tissues with an equivalent amount of EPA", "setting": "[2]", "value": 3, "unit": "times"},
      {"measurement": "Brain phospholipid DHA, percent of total fatty acids", "setting": "[3]; SDA 0.2%", "value": 10.07, "unit": "%"},
      {"measurement": "Brain phospholipid EPA, percent of total fatty acids", "setting": "[3]; SDA 0.2%", "value": 0.02, "unit": "%"},
      {"measurement": "Brain phospholipid SDA, percent of total fatty acids", "setting": "[3]; SDA 0.2%", "value": 0.01, "unit": "%"},
      {"measurement": "Brain phospholipid DHA, percent of total fatty acids", "setting": "[3]; SDA 0.4%", "value": 9.15, "unit": "%"},
      {"measurement": "Brain phospholipid EPA, percent of total fatty acids", "setting": "[3]; SDA 0.4%", "value": 0.04, "unit": "%"},
      {"measurement": "Brain phospholipid SDA, percent of total fatty acids", "setting": "[3]; SDA 0.4%", "value": 0.01, "unit": "%"},
      {"measurement": "Brain phospholipid DHA, percent of total fatty acids", "setting": "[3]; SDA 0.6%", "value": 10.99, "unit": "%"},
      {"measurement": "Brain phospholipid EPA, percent of total fatty acids", "setting": "[3]; SDA 0.6%", "value": 0.06, "unit": "%"},
      {"measurement": "Brain phospholipid SDA, percent of total fatty acids", "setting": "[3]; SDA 0.6%", "value": 0.01, "unit": "%"},
      {"measurement": "Brain phospholipid DHA, percent of total fatty acids", "setting": "[3]; SDA 0.8%", "value": 11.21, "unit": "%"},
      {"measurement": "Brain phospholipid EPA, percent of total fatty acids", "setting": "[3]; SDA 0.8%", "value": 0.06, "unit": "%"},
      {"measurement": "Brain phospholipid SDA, percent of total fatty acids", "setting": "[3]; SDA 0.8%", "value": 0.01, "unit": "%"},
      {"measurement": "Deposition of EPA and DHA in the brain", "setting": "[3]; SDA feeding", "value": "dose response deposition of EPA and DHA in the brain"}
    ]}
  ]
}
